In patent publication US10588317B2, “Isoxazoline-substituted benzamides and analogues as insecticides” (priority 2015, dated 2020):
Like-named read-outs stand apart in the source and are kept apart here.

Key:
Assay type in all cases: in vivo
[1] = system: Euschistus heros; experiment: Euschistus heros (neotropical brown stink bug), sprayed soybean leaves; settings: 120 h, read-out: effect in at least one of the two categories (mortality or growth inhibition); for percent effect (mortality or growth inhibition) at 200 ppm: application rate 200 ppm, N2 nymphs, 5 days after infestation
Outline: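 Soybean leaves on agar sprayed with aqueous dilutions of DMSO stocks, dried, then infested with N2 nymphs. Mortality and growth inhibition scored against untreated samples 5 days after infestation; application rate 200 ppm.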

[2] = system: Thrips tabaci; experiment: Thrips tabaci (onion thrips): feeding/contact activity; settings: 144 h
Procedure: (§1) Sunflower leaf discs were placed on agar in 24-well microtiter plates and sprayed with aqueous test solutions prepared from 10'000 ppm DMSO stock solutions. After drying the leaf discs were infested with a Thrips population of mixed ages. The samples were assessed for mortality 6 days after infestation.

[3] = system: Tetranychus urticae; experiment: Tetranychus urticae (two-spotted spider mite): feeding/contact activity; settings: 192 h
Procedure: as §1, with “Bean” for “Sunflower”, “discs” for “discs were placed”, “were” for “and”, “mite” for “Thrips”, “on mixed population (mobile stages) 8” for “6”

[4] = system: Spodoptera littoralis; experiment: Spodoptera littoralis (Egyptian cotton leaf worm), sprayed cotton leaf discs; settings: foliar, 72 h, read-out: control (mortality, anti-feeding effect, growth inhibition)
Outline: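 Cotton leaf discs on agar sprayed with aqueous test solutions made from 10'000 ppm DMSO stock; after drying, infested with five L1 larvae. Mortality, anti-feeding and growth inhibition scored versus untreated samples 3 days after infestation; control counted when any category exceeds untreated.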

[5] = system: Plutella xylostella; experiment: Plutella xylostella (diamond back moth), artificial diet; settings: 120 h, read-out: effect in at least one of the two categories (mortality or growth inhibition); for percent effect (mortality or growth inhibition) at 200 ppm: application rate 200 ppm, L2 larvae, 5 days after infestation
Outline: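 Artificial diet in 24-well plates treated with aqueous test solutions made from 10'000 ppm DMSO stocks, dried, then infested with L2 larvae (10 to 15 per well). Mortality and growth inhibition scored against untreated samples 5 days after infestation; activity cut-off at least 80% in either category at 200 ppm.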

[6] = system: Diabrotica balteata; experiment: Diabrotica balteata (corn root worm), sprayed maize sprouts; settings: 96 h, read-out: effect in at least one of the two categories (mortality or growth inhibition); for percent effect (mortality or growth inhibition) at 200 ppm: application rate 200 ppm, L2 larvae, 4 days after infestation
Outline: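 Maize sprouts on agar sprayed with aqueous dilutions of DMSO stocks, dried, then infested with L2 larvae (6–10 per well). Mortality and growth inhibition scored against untreated controls 4 days after infestation, at 200 ppm application rate.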

[7] = system: Spodoptera littoralis; experiment: Spodoptera littoralis (Egyptian cotton leaf worm), uptake by lettuce roots from agar; settings: 144 h, read-out: effect in at least one of the three categories (mortality, anti-feeding, or growth inhibition)
Excerpt: Test compounds were applied by pipette from 10'000 ppm DMSO stock solutions into 24-well plates and mixed with agar. Lettuce seeds were placed onto the agar and the multi well plate was closed by another plate which contained also agar. After 7 days the compound was absorbed by the roots and the lettuce grew into the lid plate. The lettuce leaves were then cut off into the lid plate. Spodoptera eggs were pipetted through a plastic stencil onto a humid gel blotting paper and the lid plate was closed with it. The samples were assessed for mortality, anti-feedant effect and growth inhibition in comparison to untreated samples 6 days after infestation.
The following compounds gave an effect of at least 80% in at least one of the three categories (mortality, anti-feeding, or growth inhibition) at a test rate of 12.5 ppm: […]

[8] = system: Myzus persicae; experiment: Myzus persicae (green peach aphid): feeding/contact activity; settings: 144 h
Procedure: Sunflower leaf discs were placed onto agar in a 24-well microtiter plate and sprayed with aqueous test solutions prepared from 10'000 ppm DMSO stock solutions. After drying, the leaf discs were infested with an aphid population of mixed ages. The samples were assessed for mortality 6 days after infestation.

[9] = application rate 200 ppm, Thrips population of mixed ages, 6 days after infestation, read-out: mortality
[10] = application rate 200 ppm, mixed population (mobile stages), 8 days after infestation, read-out: mortality
[11] = application rate 200 ppm, L1 larvae, 3 days after infestation
[12] = application rate 200 ppm, aphid population of mixed ages, 6 days after infestation, read-out: mortality

Cc1cc(C2=NO[C@@](c3cc(Cl)c(F)c(Cl)c3)(C(F)(F)F)C2)ccc1C(=O)NC1CON(S(=O)(=O)CC(F)(F)F)C1 (some centres unmarked) [Compound A8]
≥ 80%: percent effect (mortality or growth inhibition) at 200 ppm [1] | mortality at 200 ppm [2, 9] | mortality at 200 ppm [3, 10] | mortality at 200 ppm [4, 11] | percent effect (mortality or growth inhibition) at 200 ppm [5] | percent effect (mortality or growth inhibition) at 200 ppm [6] | percent control (mortality, anti-feedant effect or growth inhibition) at 12.5 ppm [7]

CS(=O)(=O)N1CC(NC(=O)c2ccc(C3=NOC(c4cc(Cl)cc(Cl)c4)(C(F)(F)F)C3)cc2Br)CO1 (centres unmarked) [Compound A48]
≥ 80%: percent effect (mortality or growth inhibition) at 200 ppm [1] | mortality at 200 ppm [2, 9] | mortality at 200 ppm [3, 10] | mortality at 200 ppm [4, 11] | percent effect (mortality or growth inhibition) at 200 ppm [5] | percent effect (mortality or growth inhibition) at 200 ppm [6] | percent control (mortality, anti-feedant effect or growth inhibition) at 12.5 ppm [7]

Cc1cc(C2=NO[C@](c3cc(Cl)cc(C(F)(F)F)c3)(C(F)(F)F)C2)ccc1C(=O)N[C@H]1CON(S(=O)(=O)CCl)C1 [Compound A217]
≥ 80%: percent effect (mortality or growth inhibition) at 200 ppm [1] | mortality at 200 ppm [2, 9] | mortality at 200 ppm [3, 10] | mortality at 200 ppm [4, 11] | percent effect (mortality or growth inhibition) at 200 ppm [5] | percent effect (mortality or growth inhibition) at 200 ppm [6] | mortality at 200 ppm [8, 12]

Cc1cc(C2=NO[C@](c3cc(Cl)cc(C(F)(F)F)c3)(C(F)(F)F)C2)ccc1C(=O)N[C@H]1CON(S(=O)(=O)CF)C1 [Compound A218]
≥ 80%: percent effect (mortality or growth inhibition) at 200 ppm [1] | mortality at 200 ppm [2, 9] | mortality at 200 ppm [3, 10] | mortality at 200 ppm [4, 11] | percent effect (mortality or growth inhibition) at 200 ppm [5] | percent effect (mortality or growth inhibition) at 200 ppm [6] | mortality at 200 ppm [8, 12]

Cc1cc(C2=NO[C@](c3cc(Cl)cc(C(F)(F)F)c3)(C(F)(F)F)C2)ccc1C(=O)N[C@H]1CON(S(=O)(=O)F)C1 [Compound A219]
≥ 80%: percent control (mortality or growth inhibition) at 200 ppm [1] | mortality at 200 ppm [2] | mortality at 200 ppm [3] | mortality at 200 ppm [4] | percent control (mortality or growth inhibition) at 200 ppm [5] | percent control (mortality or growth inhibition) at 200 ppm [6] | mortality at 200 ppm [8]

Cc1cc(C2=NO[C@](c3cc(Cl)c(Cl)c(Cl)c3)(C(F)(F)F)C2)ccc1C(=O)N[C@H]1CON(S(=O)(=O)CCl)C1 [Compound A220, N-[(4R)-2-(chloromethylsulfonyl)-1,2-oxazolidin-4-yl]-2-methyl-4-[(5R)-5-(3,4,5-trichlorophenyl)-5-(trifluoromethyl)-4H-1,2-oxazol-3-yl]benzamide]
≥ 80%: percent effect (mortality or growth inhibition) at 200 ppm [1] | mortality at 200 ppm [2, 9] | mortality at 200 ppm [3, 10] | mortality at 200 ppm [4, 11] | percent effect (mortality or growth inhibition) at 200 ppm [5] | percent effect (mortality or growth inhibition) at 200 ppm [6] | mortality at 200 ppm [8, 12]

Cc1cc(C2=NO[C@](c3cc(Cl)c(F)c(Cl)c3)(C(F)(F)F)C2)ccc1C(=O)N[C@@H]1CON(S(=O)(=O)C(F)(F)F)C1 [Compound A223, 4-[(5R)-5-(3,5-dichloro-4-fluorophenyl)-5-(trifluoromethyl)-4H-1,2-oxazol-3-yl]-2-methyl-N-[(4S)-2-(trifluoromethylsulfonyl)-1,2-oxazolidin-4-yl]benzamide]
≥ 80%: percent effect (mortality or growth inhibition) at 200 ppm [1] | mortality at 200 ppm [2, 9] | mortality at 200 ppm [3, 10] | mortality at 200 ppm [4, 11] | percent effect (mortality or growth inhibition) at 200 ppm [5] | percent effect (mortality or growth inhibition) at 200 ppm [6] | mortality at 200 ppm [8, 12]

Cc1cc(C2=NO[C@@](c3cc(Cl)c(F)c(Cl)c3)(C(F)(F)F)C2)ccc1C(=O)N[C@H]1CON(S(=O)(=O)C(F)F)C1 [Compound A226, 4-[(5S)-5-(3,5-dichloro-4-fluorophenyl)-5-(trifluoromethyl)-4H-1,2-oxazol-3-yl]-N-[(4R)-2-(difluoromethylsulfonyl)-1,2-oxazolidin-4-yl]-2-methylbenzamide]
≥ 80%: percent effect (mortality or growth inhibition) at 200 ppm [1] | mortality at 200 ppm [2, 9] | mortality at 200 ppm [3, 10] | mortality at 200 ppm [4, 11] | percent effect (mortality or growth inhibition) at 200 ppm [5] | percent effect (mortality or growth inhibition) at 200 ppm [6] | mortality at 200 ppm [8, 12]

Cc1cc(C2=NO[C@@](c3cc(Cl)c(F)c(Cl)c3)(C(F)(F)F)C2)ccc1C(=O)N[C@@H]1CON(S(=O)(=O)C2CC2)C1 [Compound A228, N-[(4S)-2-cyclopropylsulfonyl-1,2-oxazolidin-4-yl]-4-[(5S)-5-(3,5-dichloro-4-fluorophenyl)-5-(trifluoromethyl)-4H-1,2-oxazol-3-yl]-2-methylbenzamide]
≥ 80%: percent effect (mortality or growth inhibition) at 200 ppm [1] | mortality at 200 ppm [2, 9] | mortality at 200 ppm [3, 10] | mortality at 200 ppm [4, 11] | percent effect (mortality or growth inhibition) at 200 ppm [5] | percent effect (mortality or growth inhibition) at 200 ppm [6] | mortality at 200 ppm [8, 12]

Cc1cc(C2=NO[C@@](c3cc(Cl)c(Cl)c(Cl)c3)(C(F)(F)F)C2)ccc1C(=O)N[C@@H]1CON(S(=O)(=O)C2CC2)C1 [Compound A229, N-[(4S)-2-cyclopropylsulfonyl-1,2-oxazolidin-4-yl]-2-methyl-4-[(5S)-5-(3,4,5-trichlorophenyl)-5-(trifluoromethyl)-4H-1,2-oxazol-3-yl]benzamide]
≥ 80%: percent effect (mortality or growth inhibition) at 200 ppm [1] | mortality at 200 ppm [2, 9] | mortality at 200 ppm [3, 10] | mortality at 200 ppm [4, 11] | percent effect (mortality or growth inhibition) at 200 ppm [5] | percent effect (mortality or growth inhibition) at 200 ppm [6] | mortality at 200 ppm [8, 12]

Cc1cc(C2=NO[C@@](c3cc(Cl)cc(Cl)c3)(C(F)(F)F)C2)ccc1C(=O)N[C@@H]1CON(S(=O)(=O)C2CC2)C1 [Compound A230]
≥ 80%: percent effect (mortality or growth inhibition) at 200 ppm [1] | mortality at 200 ppm [2, 9] | mortality at 200 ppm [3, 10] | mortality at 200 ppm [4, 11] | percent effect (mortality or growth inhibition) at 200 ppm [5] | percent effect (mortality or growth inhibition) at 200 ppm [6] | mortality at 200 ppm [8, 12]

Cc1cc(C2=NO[C@@](c3cc(Cl)c(Cl)c(Cl)c3)(C(F)(F)F)C2)ccc1C(=O)N[C@H]1CON(S(=O)(=O)C(F)F)C1 [Compound A231, N-[(4R)-2-(difluoromethylsulfonyl)-1,2-oxazolidin-4-yl]-2-methyl-4-[(5S)-5-(3,4,5-trichlorophenyl)-5-(trifluoromethyl)-4H-1,2-oxazol-3-yl]benzamide]
≥ 80%: percent effect (mortality or growth inhibition) at 200 ppm [1] | mortality at 200 ppm [2, 9] | mortality at 200 ppm [3, 10] | mortality at 200 ppm [4, 11] | percent effect (mortality or growth inhibition) at 200 ppm [5] | percent effect (mortality or growth inhibition) at 200 ppm [6] | mortality at 200 ppm [8, 12]

Cc1cc(C2=NO[C@](c3cc(Cl)cc(Cl)c3)(C(F)(F)F)C2)ccc1C(=O)N[C@@H]1CON(S(=O)(=O)C(F)F)C1 [Compound A232, 4-[(5R)-5-(3,5-dichlorophenyl)-5-(trifluoromethyl)-4H-1,2-oxazol-3-yl]-N-[(4S)-2-(difluoromethylsulfonyl)-1,2-oxazolidin-4-yl]-2-methylbenzamide]
≥ 80%: percent effect (mortality or growth inhibition) at 200 ppm [1] | mortality at 200 ppm [2, 9] | mortality at 200 ppm [3, 10] | mortality at 200 ppm [4, 11] | percent effect (mortality or growth inhibition) at 200 ppm [5] | percent effect (mortality or growth inhibition) at 200 ppm [6] | mortality at 200 ppm [8, 12]

Cc1cc(C2=NO[C@@](c3cc(Cl)cc(C(F)(F)F)c3)(C(F)(F)F)C2)ccc1C(=O)N[C@@H]1CON(S(=O)(=O)C(F)F)C1 [Compound A233]
≥ 80%: percent effect (mortality or growth inhibition) at 200 ppm [1] | mortality at 200 ppm [2, 9] | mortality at 200 ppm [3, 10] | mortality at 200 ppm [4, 11] | percent effect (mortality or growth inhibition) at 200 ppm [5] | percent effect (mortality or growth inhibition) at 200 ppm [6] | mortality at 200 ppm [8, 12]
